From patent US10154974B1, “Use of abscisic acid for the prevention and treatment of malaria” (The Regents of the University of California, priority 2015, dated 2018)

Legend:
[1] = Daily monitoring of water consumption, body weight and condition of mice; format: in vivo; conditions: infected CD1 mice
Protocol: 6-8 week old female CD1 mice (Jackson) were housed four to a cage and provided with unsupplemented water or water supplemented with 2.56 mM (±)-abscisic acid (CAS Registry Number 14375-45-2) obtained from Sigma-Aldrich (Catalog No. A1049). Water and supplemented water were changed daily. On day 3 of supplementation, mice were injected intraperitoneally with 5×10^6 P. yoelii 17XNL-infected RBCs. Mouse weight, water consumption per cage, and parasitemia were monitored daily. Parasitemia was determined from thin blood films stained with Giemsa. Parasitemia was measured as the percentage of infected RBCs divided by total RBCs, while gametocytemia was measured as the proportion of gametocyte-containing RBCs of total infected RBCs. Four mice were used per group in replicated studies. Daily parasitemias and gametocytemias were analyzed by unpaired t-test.

[2] = test system: nitric oxide synthase (NOS); test: NOS transcript levels in mouse liver and spleen; format: in vivo, mice; conditions: day 7 of infection
Protocol: For mosquito immune gene expression, 20 midguts were dissected from mosquitoes in each treatment group at 1, 2, 4, 6, 8 and 24 hours post-feeding. Midguts were sonicated and stored in Trizol at −20° C. for up to a week before RNA was extracted according to manufacturer's instructions. cDNA synthesis was carried out using QantiTect Reverse Transcription Kit (Qiagen) and 200 ng of cDNA used per reaction for qRT-PCR with Sybr Green (Applied Biosystems). Fold changes in expression levels were calculated using the comparative threshold cycle method. Data were normalized to the housekeeping gene ribosomal protein S7 and to the control treatment. Primers and cycling conditions for AsNOS, defensin, LRIM, TEP1, and APL1 were as previously described (Hauck E S, et al. Microbes Infect. 2013; 15:775-87). For gene expression analysis of mouse liver and spleen, organs were flash frozen after necropsy and stored at −80° C. before RNA was extracted in Trizol and cDNA synthesized. Real-time PCR was performed using TaqMan probe-based expression assays for mouse NOS2, PPARγ (Mm00440940), and β-actin (Applied Biosystems) with volumes and cycling conditions as previously described (Chau et al., Infect Immun, 2013, 81:3515-26). Samples were analyzed in triplicate with 250 ng of cDNA per reaction to confirm uniformity of amplification. […] All expression data were analyzed by one sample t-test.

[3] = test system: P. falciparum 3D7; test: P. falciparum gametocyte formation assay; format: cell-based; conditions: 10 nM or 100 nM ABA, 6, 8 or 10 days post culture synchronization
Protocol: Studies of the effects of ABA on gametocyte formation were performed with P. falciparum 3D7 engineered to express GFP under the control of alpha tubulin II and Pfs25 promoters. Parasite cultures were synchronized using sorbitol. At 48 hours post-synchronization, 200 μL aliquots of parasite culture and complete RPMI medium were placed in a 96-well flat-bottomed plate and treated with 10 nM ABA, 100 nM ABA, or a diluent control. Media and treatments were refreshed every 48 hours. At 4, 6 and 8 days after the start of treatment, separate aliquots were harvested, media was removed, and replaced with 10% formalin for 1 hour at room temperature. Formalin was removed and replaced with PBS before gametocyte levels were measured by flow cytometry using a FACS Calibur flow cytometer (BD Biosciences) with a GFP filter. Four replicates were carried out, each using a separate parasite culture passage. Relative changes in gametocyte numbers were normalized to controls set at 1 and analyzed by one-sample t-test.

[4] = test system: P. falciparum; test: P. falciparum infection of A. stephensi fed a supplemented infected bloodmeal; format: in vivo; conditions: for reduction of infection prevalence in A. stephensi: relative to control
Protocol: For P. falciparum infections A. stephensi were fed on a 1:1 ratio of P. falciparum-infected RBCs containing a treatment or diluent control and provided in a Hemotek Insect Feeding System (Discovery Workshops). ABA was eluted in 100% ethanol and stored at −20 C for up to 6 months. ABA stock was diluted with PBS and added into blood immediately before feeding for final concentrations of 10 nM and 100 nM. For L-NAME feeds mosquitoes were maintained on sugar cubes and water pads containing 1 mg/mL L-NAME for 72 hours before the feed and throughout the course of infection. Infection prevalence data were analyzed by Fisher's Exact Test. Oocyst intensities were analyzed by Mann-Whitney test.

[5] = Whole liver and spleen weights; format: in vivo, mice; conditions: day 9 post-infection with P. yoelii 17XNL
Protocol: FIG. 20A-C illustrate that ABA supplemented mice have reduced hepatosplenomegaly and evidence of improved liver function. Shown are weights of whole liver (FIG. 20A) and spleen (FIG. 20B) from control and ABA-supplemented mice on day 9 post-infection with P. yoelii 17XNL. Also shown are blood urea nitrogen levels (FIG. 20C) in plasma of uninfected and P. yoelii-infected, control and ABA-supplemented mice on day 11 post-infection. Data were analyzed by unpaired t-test.

[6] = Complete blood counts; format: in vivo, mice
Protocol: FIG. 19A-C through FIG. 28A-B and Tables 6-1 through 6-4 support the use of ABA for treating Plasmodium-infected mammalian subjects. In the following tables, 4-5 mice were used per treatment, and data were analyzed by unpaired t-test. […] Abbreviations for Tables 6-3 and 6-4 are as follows: WBC=white blood cells, RBCs=red blood cells, MCV=mean corpuscular volume, MCH=mean corpuscular hemoglobin, MCHC=mean corpuscular hemoglobin concentration, RDW=red blood cell distribution width, MPV=mean platelet volume.

[7] = test system: human macrophages; conditions: in vitro; cited from earlier work
[8] = test system: inflammatory bowel disease (IBD); conditions: ABA supplementation; cited from earlier work
[9] = P. yoelii infection, day 11 post-infection

## CC1=CC(=O)CC(C)(C)[C@@]1(O)/C=C/C(C)=C\C(=O)O (racemic) [ABA, (2Z,4E)-5-[(1S)-1-hydroxy-2,6,6-trimethyl-4-oxocyclohex-2-en-1-yl]-3-methylpenta-2,4-dienoic acid]
[1]; day 7, compared to controls
  lethargy at necropsy: less lethargic
[1]; over the course of infection
  daily weight change: not different
[2]
  transcript levels of nitric oxide synthase (NOS): decreased
[3]
  gametocyte levels: no effect
[4]; 10 nM ABA in bloodmeal
  reduction of infection prevalence in A. stephensi: 30%
[4]; 10 nM ABA, among infected mosquitoes (controls 2.1)
  mean oocysts per midgut: 1.6
[4]; 100 nM ABA in bloodmeal
  reduction of infection prevalence in A. stephensi: 36%
[5]
  hepatosplenomegaly (weights of whole liver and spleen): reduced
[6]; [9]
  percentage of basophils in whole blood: partially rescues decrease
  percentage of eosinophils in whole blood: partially rescues decrease
[6]; P. yoelii-infected mice
  % RDW, Mean: 34.95%
  % hematocrit, Mean: 21.00%
  % lymphocytes, Mean: 69.22%
  % monocytes, Mean: 5.31%
  % neutrophils, Mean: 22.8%
  MCHC, Mean: 34.73 g/dL
  MCV, Mean: 55.20 fL
  MPV, Mean: 6.23 fL
  RBCs, Mean: 3.83 M/ul
  WBC, Mean: 31.90 K/uL
  hemoglobin, Mean: 7.28 g/dL
  platelets, Mean: 234.3 K/ul
[6]; uninfected and P. yoelii-infected mice
  complete blood counts: no effect
[6]; uninfected mice
  % RDW, Mean: 17.02%
  % hematocrit, Mean: 38.48%
  % lymphocytes, Mean: 66.56%
  % monocytes, Mean: 11.71%
  % neutrophils, Mean: 17.53%
  MCHC, Mean: 32.72 g/dL
  MCV, Mean: 43.14 fL
  MPV, Mean: 5.74 fL
  RBCs, Mean: 8.94 M/ul
  WBC, Mean: 5.73 K/uL
  hemoglobin, Mean: 12.56 g/dL
  platelets, Mean: 573.0 K/ul
[7]
  activation of human macrophages: activate
[8]
  epithelial erosion and leukocyte infiltration: reduced
